The kinase profiling compilation of Christmann-Franck et al. (2016)

What was measured:
Experiment in all cases: KINOMEscan competition binding
Details in all cases: compound 10.0 µM
[1] = target: RIPK4 (human) (UniProt P57078)
[2] = target: NEK7 (human) (UniProt Q8TDX7)
[3] = target: MAP3K10 (human) (UniProt Q02779)
[4] = target: MELK (human) (UniProt Q14680)
[5] = target: CDKL5 (human) (UniProt O76039)
[6] = target: MATK (human) (UniProt P42679)
[7] = target: AKT1 (human) (UniProt P31749)
[8] = target: STK25 (human) (UniProt O00506)
[9] = target: STK4 (human) (UniProt Q13043)
[10] = target: TYK2 JH1 catalytic (human) (UniProt P29597)
[11] = target: PRKG2 (human) (UniProt Q13237)
[12] = target: CSF1R (human) (UniProt P07333)
[13] = target: PKN3 (M.tuberculosis) (UniProt Q6P5Z2)
[14] = target: FGFR2 (human) (UniProt P21802)
[15] = target: MARK1 (human) (UniProt Q9P0L2)
[16] = target: PIK3CB (human) (UniProt P42338)
[17] = target: RPS6KA2 KD2 (human) (UniProt Q15349)
[18] = target: PTK6 (human) (UniProt Q13882)
[19] = target: RPS6KA6 KD1 (human) (UniProt Q9UK32)
[20] = target: CRK2 (P.falciparum) (UniProt P61075)
[21] = test system: EGFR (human), P00533 [747-751 del / S ins]
[22] = target: VRK2 (human) (UniProt Q86Y07)
Chain of VRK2 (human) (Q86Y07 whole entry, looked up): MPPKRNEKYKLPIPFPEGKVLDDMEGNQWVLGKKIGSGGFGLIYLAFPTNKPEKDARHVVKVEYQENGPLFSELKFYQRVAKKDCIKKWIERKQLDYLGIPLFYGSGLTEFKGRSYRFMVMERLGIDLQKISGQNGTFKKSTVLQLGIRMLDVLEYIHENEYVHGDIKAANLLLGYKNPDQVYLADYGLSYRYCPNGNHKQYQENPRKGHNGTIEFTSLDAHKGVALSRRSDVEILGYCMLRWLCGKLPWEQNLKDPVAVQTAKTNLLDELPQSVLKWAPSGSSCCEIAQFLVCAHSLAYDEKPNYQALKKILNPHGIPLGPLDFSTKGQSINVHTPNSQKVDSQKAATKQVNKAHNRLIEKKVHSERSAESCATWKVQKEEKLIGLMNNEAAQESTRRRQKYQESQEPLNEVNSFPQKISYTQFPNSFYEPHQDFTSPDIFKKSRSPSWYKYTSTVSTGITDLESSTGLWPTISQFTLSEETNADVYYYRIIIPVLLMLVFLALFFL

[23] = test system: ABL1 (human), P00519 [Y253F]
[24] = target: GSK3A (human) (UniProt P49840)
[25] = target: MAPK10 (human) (UniProt P53779)
[26] = target: FLT3 (human) (UniProt P36888)
Chain of FLT3 (human) (P36888 whole entry, looked up): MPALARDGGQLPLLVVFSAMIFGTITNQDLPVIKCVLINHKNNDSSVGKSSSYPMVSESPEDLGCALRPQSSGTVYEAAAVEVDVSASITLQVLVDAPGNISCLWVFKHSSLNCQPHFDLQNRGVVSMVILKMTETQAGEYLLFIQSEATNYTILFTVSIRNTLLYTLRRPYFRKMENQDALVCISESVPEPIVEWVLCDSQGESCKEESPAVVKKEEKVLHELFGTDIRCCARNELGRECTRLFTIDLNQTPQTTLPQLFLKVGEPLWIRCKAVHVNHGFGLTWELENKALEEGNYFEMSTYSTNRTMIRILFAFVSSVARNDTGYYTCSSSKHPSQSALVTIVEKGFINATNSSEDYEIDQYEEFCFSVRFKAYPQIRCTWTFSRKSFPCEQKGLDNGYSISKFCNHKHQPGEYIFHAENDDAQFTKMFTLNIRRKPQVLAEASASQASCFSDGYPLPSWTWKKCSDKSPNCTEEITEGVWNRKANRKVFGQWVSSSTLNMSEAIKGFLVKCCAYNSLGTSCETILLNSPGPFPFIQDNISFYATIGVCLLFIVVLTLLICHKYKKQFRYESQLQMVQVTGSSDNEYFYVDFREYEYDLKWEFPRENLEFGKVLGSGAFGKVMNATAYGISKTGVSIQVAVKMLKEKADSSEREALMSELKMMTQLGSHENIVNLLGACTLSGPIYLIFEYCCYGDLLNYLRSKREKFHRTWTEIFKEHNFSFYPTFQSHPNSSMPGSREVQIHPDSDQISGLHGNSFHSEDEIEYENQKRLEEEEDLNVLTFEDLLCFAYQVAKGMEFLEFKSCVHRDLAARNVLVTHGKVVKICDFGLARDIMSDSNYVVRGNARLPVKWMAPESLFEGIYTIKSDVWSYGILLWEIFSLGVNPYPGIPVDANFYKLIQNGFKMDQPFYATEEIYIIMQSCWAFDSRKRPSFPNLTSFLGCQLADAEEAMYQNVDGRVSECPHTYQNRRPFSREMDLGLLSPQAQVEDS

[27] = target: MAPKAPK2 (human) (UniProt P49137)
Chain of MAPKAPK2 (human) (P49137 whole entry, looked up): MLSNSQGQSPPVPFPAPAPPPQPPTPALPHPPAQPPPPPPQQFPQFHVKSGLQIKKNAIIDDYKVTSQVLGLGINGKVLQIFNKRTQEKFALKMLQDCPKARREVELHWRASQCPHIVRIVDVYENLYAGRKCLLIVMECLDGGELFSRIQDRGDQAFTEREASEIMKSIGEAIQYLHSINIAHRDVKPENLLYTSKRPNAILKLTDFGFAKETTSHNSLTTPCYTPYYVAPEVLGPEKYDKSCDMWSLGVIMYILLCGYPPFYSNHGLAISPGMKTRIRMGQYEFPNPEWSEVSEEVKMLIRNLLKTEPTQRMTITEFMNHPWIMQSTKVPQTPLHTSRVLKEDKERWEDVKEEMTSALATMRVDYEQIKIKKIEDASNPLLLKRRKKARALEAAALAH

[28] = target: SIK1 (human) (UniProt P57059)
Chain of SIK1 (human) (P57059 whole entry, looked up): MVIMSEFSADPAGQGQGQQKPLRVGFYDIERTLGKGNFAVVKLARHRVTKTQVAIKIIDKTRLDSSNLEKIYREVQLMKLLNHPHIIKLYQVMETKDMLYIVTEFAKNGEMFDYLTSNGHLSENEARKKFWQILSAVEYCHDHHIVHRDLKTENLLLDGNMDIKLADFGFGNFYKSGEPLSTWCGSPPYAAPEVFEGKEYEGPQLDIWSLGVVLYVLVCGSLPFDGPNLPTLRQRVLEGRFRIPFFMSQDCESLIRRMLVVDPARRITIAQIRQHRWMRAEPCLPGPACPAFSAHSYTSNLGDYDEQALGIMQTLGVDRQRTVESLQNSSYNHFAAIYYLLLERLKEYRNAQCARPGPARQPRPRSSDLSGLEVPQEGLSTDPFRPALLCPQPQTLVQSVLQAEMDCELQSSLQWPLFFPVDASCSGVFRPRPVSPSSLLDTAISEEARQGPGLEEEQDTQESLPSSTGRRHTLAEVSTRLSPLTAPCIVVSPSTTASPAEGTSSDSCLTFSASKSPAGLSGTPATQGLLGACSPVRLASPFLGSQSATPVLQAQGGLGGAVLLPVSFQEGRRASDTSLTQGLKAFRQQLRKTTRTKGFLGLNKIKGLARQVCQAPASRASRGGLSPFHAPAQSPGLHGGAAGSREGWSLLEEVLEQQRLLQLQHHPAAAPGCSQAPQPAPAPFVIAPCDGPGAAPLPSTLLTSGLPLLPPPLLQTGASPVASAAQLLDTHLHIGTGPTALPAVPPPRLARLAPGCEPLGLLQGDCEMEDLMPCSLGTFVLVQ

[29] = target: NEK1 (human) (UniProt Q96PY6)
[30] = target: STK32C (human) (UniProt Q86UX6)
[31] = target: DAPK3 (human) (UniProt O43293)
[32] = target: RIOK1 (human) (UniProt Q9BRS2)
[33] = target: MYLK2 (human) (UniProt Q9H1R3)
[34] = target: SRPK2 (human) (UniProt P78362)
[35] = target: PIP4K2C (human) (UniProt Q8TBX8)
[36] = target: PRKX (human) (UniProt P51817)
Chain of PRKX (human) (P51817 whole entry, looked up): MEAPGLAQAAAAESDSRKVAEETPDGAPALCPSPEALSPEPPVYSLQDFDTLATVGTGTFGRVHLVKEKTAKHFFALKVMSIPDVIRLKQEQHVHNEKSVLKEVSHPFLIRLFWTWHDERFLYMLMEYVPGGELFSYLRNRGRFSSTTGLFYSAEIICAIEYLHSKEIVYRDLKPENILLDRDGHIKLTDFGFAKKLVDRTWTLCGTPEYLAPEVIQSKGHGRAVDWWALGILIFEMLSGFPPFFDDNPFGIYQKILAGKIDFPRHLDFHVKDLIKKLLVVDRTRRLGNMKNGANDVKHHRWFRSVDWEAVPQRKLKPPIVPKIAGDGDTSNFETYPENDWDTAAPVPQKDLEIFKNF

[37] = target: RIPK1 (human) (UniProt Q13546)
[38] = target: EPHA3 (human) (UniProt P29320)
[39] = target: GSK3B (human) (UniProt P49841)
[40] = target: RPS6KA2 KD1 (human) (UniProt Q15349)

Chain of AKT1 (human) (P31749 whole entry, looked up): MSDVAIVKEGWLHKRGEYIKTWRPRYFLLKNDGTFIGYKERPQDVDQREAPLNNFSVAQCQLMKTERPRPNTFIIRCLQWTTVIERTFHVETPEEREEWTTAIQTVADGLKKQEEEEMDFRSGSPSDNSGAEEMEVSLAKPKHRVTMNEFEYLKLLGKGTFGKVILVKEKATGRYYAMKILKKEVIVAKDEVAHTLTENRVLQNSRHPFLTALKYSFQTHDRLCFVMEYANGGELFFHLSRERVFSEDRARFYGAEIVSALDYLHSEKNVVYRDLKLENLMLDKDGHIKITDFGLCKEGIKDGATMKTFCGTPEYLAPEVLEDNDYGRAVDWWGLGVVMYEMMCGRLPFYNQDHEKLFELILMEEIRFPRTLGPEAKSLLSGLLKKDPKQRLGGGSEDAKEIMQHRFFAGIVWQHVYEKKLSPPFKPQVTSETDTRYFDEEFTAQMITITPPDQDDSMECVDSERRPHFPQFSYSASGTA
Chain of CDKL5 (human) (O76039 whole entry, looked up): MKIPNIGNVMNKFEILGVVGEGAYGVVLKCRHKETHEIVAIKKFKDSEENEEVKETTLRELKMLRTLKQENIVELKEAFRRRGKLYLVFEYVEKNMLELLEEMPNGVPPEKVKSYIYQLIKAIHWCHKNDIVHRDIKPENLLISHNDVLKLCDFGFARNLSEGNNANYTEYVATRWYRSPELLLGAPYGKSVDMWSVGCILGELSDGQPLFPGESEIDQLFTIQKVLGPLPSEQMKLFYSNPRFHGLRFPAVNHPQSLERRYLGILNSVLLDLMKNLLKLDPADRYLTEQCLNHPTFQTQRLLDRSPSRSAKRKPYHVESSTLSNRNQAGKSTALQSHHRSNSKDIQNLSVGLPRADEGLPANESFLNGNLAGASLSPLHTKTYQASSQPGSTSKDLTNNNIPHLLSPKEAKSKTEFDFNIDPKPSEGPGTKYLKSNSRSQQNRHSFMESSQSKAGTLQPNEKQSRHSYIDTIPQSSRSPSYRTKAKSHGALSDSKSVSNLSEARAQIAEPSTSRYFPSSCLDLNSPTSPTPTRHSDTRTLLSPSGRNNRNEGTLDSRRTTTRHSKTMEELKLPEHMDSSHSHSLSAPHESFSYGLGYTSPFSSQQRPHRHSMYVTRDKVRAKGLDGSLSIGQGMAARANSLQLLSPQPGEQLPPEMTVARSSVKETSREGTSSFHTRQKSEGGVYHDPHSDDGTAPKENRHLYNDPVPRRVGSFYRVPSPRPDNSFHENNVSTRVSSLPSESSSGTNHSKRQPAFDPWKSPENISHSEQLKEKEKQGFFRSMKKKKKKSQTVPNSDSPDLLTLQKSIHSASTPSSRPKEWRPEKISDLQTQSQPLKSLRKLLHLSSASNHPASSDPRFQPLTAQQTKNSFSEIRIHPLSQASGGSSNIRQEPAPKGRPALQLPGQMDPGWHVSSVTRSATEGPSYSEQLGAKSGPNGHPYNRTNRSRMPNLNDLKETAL
Chain of MATK (human) (P42679 whole entry, looked up): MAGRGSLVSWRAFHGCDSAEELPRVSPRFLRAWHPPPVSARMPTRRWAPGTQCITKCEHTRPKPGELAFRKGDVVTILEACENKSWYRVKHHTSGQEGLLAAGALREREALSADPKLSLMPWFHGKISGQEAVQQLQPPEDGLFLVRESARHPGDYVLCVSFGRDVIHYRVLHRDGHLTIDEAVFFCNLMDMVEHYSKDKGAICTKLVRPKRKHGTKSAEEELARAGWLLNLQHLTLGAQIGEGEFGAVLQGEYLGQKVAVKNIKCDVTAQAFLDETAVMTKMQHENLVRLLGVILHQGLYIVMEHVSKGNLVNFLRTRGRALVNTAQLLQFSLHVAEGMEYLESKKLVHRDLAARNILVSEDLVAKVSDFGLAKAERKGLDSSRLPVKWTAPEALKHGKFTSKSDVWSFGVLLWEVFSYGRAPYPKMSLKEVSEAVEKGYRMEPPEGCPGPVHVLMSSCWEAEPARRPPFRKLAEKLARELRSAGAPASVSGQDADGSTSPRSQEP

COc1ccc(N(C(=O)Oc2c(C)cccc2C)c2ccnc(Nc3ccc(N4CCN(C)CC4)cc3)n2)c(OC)c1
kinase still bound, per cent of control [1]: 92% | kinase still bound, per cent of control [2]: 80% | kinase still bound, per cent of control [3]: 19% | kinase still bound, per cent of control [4]: 46% | kinase still bound, per cent of control [5]: 100% | kinase still bound, per cent of control [6]: 67% | kinase still bound, per cent of control [7]: 100% | kinase still bound, per cent of control [8]: 61% | kinase still bound, per cent of control [9]: 42% | kinase still bound, per cent of control [10]: 45% | kinase still bound, per cent of control [11]: 92% | kinase still bound, per cent of control [12]: 0.1% | kinase still bound, per cent of control [13]: 90% | kinase still bound, per cent of control [14]: 0.45% | kinase still bound, per cent of control [15]: 24% | kinase still bound, per cent of control [16]: 100% | kinase still bound, per cent of control [17]: 78% | kinase still bound, per cent of control [18]: 0% | kinase still bound, per cent of control [19]: 40% | kinase still bound, per cent of control [20]: 100% | kinase still bound, per cent of control [21]: 0% | kinase still bound, per cent of control [22]: 100% | kinase still bound, per cent of control [23]: 0.1% | kinase still bound, per cent of control [24]: 100% | kinase still bound, per cent of control [25]: 37% | kinase still bound, per cent of control [26]: 2.3% | kinase still bound, per cent of control [27]: 100% | kinase still bound, per cent of control [28]: 0.3% | kinase still bound, per cent of control [29]: 76% | kinase still bound, per cent of control [30]: 19% | kinase still bound, per cent of control [31]: 88% | kinase still bound, per cent of control [32]: 5.8% | kinase still bound, per cent of control [33]: 0.95% | kinase still bound, per cent of control [34]: 42% | kinase still bound, per cent of control [35]: 100% | kinase still bound, per cent of control [36]: 41% | kinase still bound, per cent of control [37]: 63% | kinase still bound, per cent of control [38]: 9.4% | kinase still bound, per cent of control [39]: 72% | kinase still bound, per cent of control [40]: 27%
